{"source": "patent US20250304973A1", "about": "“HIGH-AFFINITY THROMBIN APTAMERS AND METHODS OF USE” (Ayass Bioscience LLC, priority 2024, published 2025)", "key": {"[1]": {"target": "T1, human alpha-thrombin protein (Homo sapiens, UniProt P00734)", "T1 construct": "Native human alpha-thrombin protein; purchased ThermoFisher Scientific RP-43100; host or cells: native protein", "assay": "ELISA-based binding assay of biotinylated thrombin aptamers to thrombin protein", "conditions": "top nine enriched aptamers, biotinylated; FIG. 2A", "description": "135. Native human alpha-thrombin protein (ThermoFisher Scientific, cat #RP-43100, Waltham, MA, USA) was added to each well of a 96-well plate (Nunc MaxiSorp flat-bottom 96-well plates, ThermoFisher Scientific, cat #44-2404-21, Waltham, MA, USA) at a concentration of 250 nM in Tris-buffered saline with a volume of 100 μL per well. The plate was then incubated at 4° C. for 16 h to allow the wells to become coated with thrombin. After removing the thrombin solution, the wells were washed and blocked using blocking buffer (20 mM Tris, 150 mM NaCl pH 7.5, 2% BSA, 0.1% Tween 20 and 100 μg/mL of sheared salmon sperm DNA) for a 1 h duration. Next, biotinylated aptamers at the indicated concentrations in a volume of 100 μL were added to the wells in an incubation buffer (20 mM Tris, 150 mM NaCl pH 7.5, 0.1% BSA, 0.1% Tween 20 and 100 μg/mL of sheared salmon sperm DNA) and incubated for 1 h at room temperature. In the competition binding assay, unlabeled aptamers were added along with the biotinylated aptamers, with the unlabeled aptamers being present in a 100-fold excess compared to the biotinylated aptamers. Following three washing steps with wash buffer (20 mM Tris, 150 mM NaCl pH 7.5, 0.1% BSA and 0.1% Tween 20), streptavidin-HRP (ThermoFisher Scientific, cat #21130, Waltham, MA, USA) was added at a dilution of 1:5000 in the incubation buffer. The plate was washed again three times to remove any unbound reagents. The bound biotinylated aptamers were then detected using 3,3′,5,5′-Tetramethylbenzidine (TMB) substrate (ThermoFisher Scientific, cat #34021, Waltham, MA, USA) following the manufacturer's instructions."}, "Factor II activity": {"target": "T2, Factor II activity (Homo sapiens, UniProt P00734)", "T2 construct": "tissue Rockland Immunochemicals, Inc R214-0050; host or cells: human citrated plasma / whole blood", "assay": "Factor II activity assay in human citrated plasma (ACLTOP analyzer)", "type": "biochemical", "conditions": "for reduction in Factor II activity: 2 uM, 2 h, normalized against untreated control; for impact of modified aptamer on Factor II activity: 2 uM modified aptamer, 1 hour room temperature plus 2-hour incubation, versus unmodified aptamer", "description": "(§1) Plasma was prepared by centrifugation for 10 min at 2000×g. In vitro activity assays were performed on ACLTOP analyzer manufactured by Instrumentation Laboratory, which is a type of coagulation analyzer commonly used in clinical laboratories to measure clotting times and assess coagulation parameters. The ACLTOP analyzer is designed to perform a wide range of coagulation tests, including Factor II activity, prothrombin time (PT), activated partial thromboplastin time (APTT), fibrinogen, and other related assays. ACLTOP analyzer uses HemosIL reagents developed by Instrumentation Laboratory company (Bedford, MA, USA) to perform coagulation tests.\nFactor II activity was measured using human plasma immunodepleted of Factor II for the quantitative determination of Factor II activity in citrated plasma based on the prothrombin time (PT) assay, for which an ACLTOP coagulation analyzer manufactured by Instrumentation Laboratory (Bedford, MA, USA) was used. To evaluate the dose-dependent activity of the aptamers in whole blood, human blood samples were collected in citrate-treated tubes. Subsequently, the blood samples were incubated at room temperature for 2 h in both the absence and presence of various concentrations of thrombin aptamers. To measure the Factor II activity using the ACLTOP coagulation analyzer, plasma was separated from the cells by centrifugation at 1500×g for 10 min at 4° C. For the dose-dependent study, concentrations of 1 uM, 2 uM, 3 uM, and 4 uM of AYA1809002 and AYA1809004 were utilized.\n(§2) Modified aptamers chemically crosslinked with TAG, PEG, and cholesterol entities at the 3′ end, were purchased from IDT (Integrated DNA Technologies, Coralville, IA, USA). The impact of modified AYA1809002 and AYA1809004 aptamers on Factor II activity, PT, and APTT was evaluated using the same protocol as was used for the unmodified aptamers. Additionally, the potential for reversal was investigated using the respective reverse complement for each aptamer."}, "human citrated plasma [2]": {"system": "human citrated plasma", "assay": "Prothrombin time (PT) assay in human citrated plasma", "type": "biochemical", "conditions": "for increase in PT time: 2 uM, 2 h, versus untreated control; for impact of modified aptamer on PT: 2 uM modified aptamer, 1 hour room temperature plus 2-hour incubation, versus unmodified aptamer", "description": "as §1\nPT time was measured using RecombiPlasTin 2G for quantitative determination in human citrated plasma of PT and Fibrinogen on an ACLTOP coagulation analyzer manufactured by Instrumentation Laboratory (Bedford, MA, USA). To assess the activity of the aptamers in a dose-dependent manner in whole blood, human blood samples were collected in citrate-treated tubes. The blood samples were then incubated at room temperature for 2 h in the absence or presence of varying concentrations of the thrombin aptamers. To measure the Prothrombin Time (PT) on the ACLTOP coagulation analyzer, plasma was obtained by centrifuging the samples at 1500×g for 10 min at 4° C. For the dose dependence study, concentrations of 1 uM, 2 uM, 3 uM, and 4 uM of AYA1809002 and AYA1809004 were utilized.\nas §2"}, "human citrated plasma [3]": {"system": "human citrated plasma", "assay": "Activated partial thromboplastin time (APTT) assay in human citrated plasma", "type": "biochemical", "conditions": "for increase in APTT time: 2 uM, 2 h, versus untreated control; for impact of modified aptamer on APTT: 2 uM modified aptamer, 1 hour room temperature plus 2-hour incubation, versus unmodified aptamer", "description": "as §1, with “137. Sterile human blood in sodium citrate was purchased from the Rockland Immuno- chemicals, Inc (cat #R214-0050, Pottstown, PA 19464, USA). Plasma” for “Plasma”\n140. […] APTT time was measured using the synthetic phospholipid reagent SynthASIil for quantitative determination in human citrated plasma on an ACLTOP coagulation analyzer manufactured by Instrumentation Laboratory (Bed- ford, MA, USA).\n(§3) 146. Modified aptamers chemically crosslinked with TAG, PEG, and cholesterol entities at the 3′ end, were purchased from IDT (Integrated DNA Technologies, Coralville, IA, USA). The impact of modified AYA1809002 and AYA1809004 aptamers on Factor II activity, PT, and APTT was evaluated using the same protocol as was used for the unmodified aptamers. Additionally, the potential for reversal was investigated using the respective reverse complement for each aptamer."}, "clot-bound thrombin": {"system": "clot-bound thrombin", "conditions": "in vivo studies, literature; cited from earlier work"}, "rat whole blood": {"system": "rat whole blood", "assay": "Factor II activity, PT, APPT and TT in rat whole blood", "type": "biochemical"}, "[4]": {"conditions": "in clinical trials; cited from earlier work"}, "[5]": {"conditions": "Table 3, existing solution; cited from earlier work"}, "[6]": {"conditions": "Table 3, existing solution; cited from earlier work", "remark": "listed apart in the source"}, "[7]": {"conditions": "requires refrigeration; cited from earlier work"}, "[8]": {"target": "thrombin over other serine proteases (Homo sapiens, UniProt P00734)", "conditions": "Table 3, existing solution; cited from earlier work"}, "AYA1809002": {"system": "AYA1809002", "assay": "Restoration of Factor II activity and PT time with reverse complement in whole blood", "type": "biochemical, human", "conditions": "1 uM AYA1809002 2 h room temperature in whole blood, then reverse complement; even at 1:1 ratio", "description": "144. Citrated blood collected from a donor was incubated in the absence or presence of 1 uM AYA1809002 at room temperature. After 2 h incubation, the indicated concentration of the reverse complement strand was added to the citrated blood sample. After an additional incubation time of 2 h, plasma was obtained through centrifugation. Factor II activity was measured using human plasma immunodepleted of Factor II for the quantitative determination of Factor II activity in citrated plasma based on the prothrombin time (PT) assay, for which an ACLTOP coagulation analyzer manufactured by Instrumentation Laboratory (Bedford, MA, USA) was used. The PT time was measured using RecombiPlasTin 2G for quantitative determination in human citrated plasma of PT and Fibrinogen on an ACLTOP coagulation analyzer manufactured by Instrumentation Laboratory (Bedford, MA, USA)."}, "[9]": {"system": "modified AYA1809002 and AYA1809004 aptamers", "assay": "Reversal potential of reverse complement on modified aptamers in human citrated plasma", "type": "biochemical", "conditions": "5 μM reverse complement strand, additional 2-hour incubation", "description": "as §3"}}, "note": "{CholTEG} = cholesterol attached through a triethylene glycol linker; {Sp18} = hexaethylene glycol (Sp18, PEG) spacer; {Sp9} = triethylene glycol (Sp9, TEG) spacer", "data": [{"substance": "AYA1809007: ssDNA thrombin aptamer AGGGGCTCTAGGGTGGGTAGGATGGTGAGACCGCAGCGT (DNA, backbone and methylation of C not given here; further chemistry not fully specified)", "values": [{"measurement": "binding to immobilized human thrombin (absorbance at 450 nm)", "setting": "[1]", "result": "strong binding capabilities"}, {"measurement": "reduction in Factor II activity", "setting": "Factor II activity", "result": "more than 75%"}, {"measurement": "increase in PT time", "setting": "human citrated plasma [2]", "result": "two-fold increases"}, {"measurement": "increase in APTT time", "setting": "human citrated plasma [3]", "result": "three-fold increase"}]}, {"substance": "HD1: first anti-thrombin DNA aptamer, 15-mer 5′-GGTTGGTGTGGTTGG-3′ binding exosite I (DNA, backbone not given here)", "values": [{"measurement": "inhibition of clot-bound thrombin", "setting": "clot-bound thrombin", "result": "> 80", "unit": "%"}]}, {"substance": "PEG-modified AYA1809002: AYA1809002 sequence with /3Sp18/ at the 3′ end (DNA GCGGTGTTGCTGGGGTTGGGAGGTTGGAGGAAGCAATCGC; DNA, 3' {Sp18}, backbone and methylation of C not given here)", "values": [{"measurement": "APPT in rat whole blood", "setting": "rat whole blood; dose-dependent manner", "result": "extend"}, {"measurement": "Factor II activity in rat whole blood", "setting": "rat whole blood; dose-dependent manner", "result": "inhibit"}, {"measurement": "PT in rat whole blood", "setting": "rat whole blood; dose-dependent manner", "result": "extend"}, {"measurement": "TT in rat whole blood", "setting": "rat whole blood; dose-dependent manner", "result": "extend"}]}, {"substance": "PEG-modified AYA1809004: AYA1809004 sequence with /3Sp18/ at the 3′ end (DNA TCGTCAAGGTACGGTTGGGGGGGTGGGTGTTGACGTTGAA; DNA, 3' {Sp18}, backbone and methylation of C not given here)", "values": [{"measurement": "impact of modified aptamer on Factor II activity", "setting": "Factor II activity", "result": "noticeable inhibition"}, {"measurement": "impact of modified aptamer on PT", "setting": "human citrated plasma [2]", "result": "slight increase"}, {"measurement": "impact of modified aptamer on APTT", "setting": "human citrated plasma [3]", "result": "slight increase"}]}, {"substance": "TEG-modified AYA1809004: AYA1809004 sequence with /3Sp9/ at the 3′ end (DNA TCGTCAAGGTACGGTTGGGGGGGTGGGTGTTGACGTTGAA; DNA, 3' {Sp9}, backbone and methylation of C not given here)", "values": [{"measurement": "impact of modified aptamer on Factor II activity", "setting": "Factor II activity", "result": "noticeable inhibition"}, {"measurement": "impact of modified aptamer on PT", "setting": "human citrated plasma [2]", "result": "slight increase"}, {"measurement": "impact of modified aptamer on APTT", "setting": "human citrated plasma [3]", "result": "slight increase"}]}, {"substance": "cholesterol-modified AYA1809004: AYA1809004 sequence with /3CholTEG/ at the 3′ end; Table 2 misprints the name (DNA TCGTCAAGGTACGGTTGGGGGGGTGGGTGTTGACGTTGAA; DNA, 3' {CholTEG}, backbone and methylation of C not given here)", "values": [{"measurement": "impact of modified aptamer on Factor II activity", "setting": "Factor II activity", "result": "no significant impact"}, {"measurement": "impact of modified aptamer on PT", "setting": "human citrated plasma [2]", "result": "no significant impact"}, {"measurement": "impact of modified aptamer on APTT", "setting": "human citrated plasma [3]", "result": "no significant impact"}]}, {"substance": "dabigatran", "values": [{"measurement": "reduction in Factor II activity", "setting": "Factor II activity", "result": 80, "unit": "%"}, {"measurement": "increase in PT time", "setting": "human citrated plasma [2]", "result": "two-fold increases"}, {"measurement": "increase in APTT time", "setting": "human citrated plasma [3]", "result": "three-fold increase"}, {"measurement": "life-threatening bleeding risks", "setting": "[4]", "result": "bleeding risks (′ 3.3%"}, {"measurement": "Half-life", "setting": "[5]", "result": "Half-life of 12-17 hours"}, {"measurement": "Renal Clearance", "setting": "[5]", "result": "~80", "unit": "%"}, {"measurement": "Onset of Action: peak effect", "setting": "[6]", "result": "Peak effect 2-3 hours"}, {"measurement": "shelf life", "setting": "[7]", "result": "shelf life 36 months"}, {"measurement": "selectivity", "setting": "[8]", "result": "~300-fold selectivity"}]}, {"substance": "heparin", "values": [{"measurement": "inhibition of clot-bound thrombin", "setting": "clot-bound thrombin", "result": 35, "unit": "%"}]}, {"substance": "reverse complement of AYA1809002: aptamer antidote GCGATTGCTTCCTCCAACCTCCCAACCCCAGCAACACCGC (DNA, backbone and methylation of C not given here)", "values": [{"measurement": "restoration of Factor II activity by reverse complement", "setting": "AYA1809002", "result": "effectively restored"}, {"measurement": "restoration of PT time by reverse complement", "setting": "AYA1809002", "result": "effectively restored"}, {"measurement": "reversal of modified aptamers' effects on Factor II activity, PT and APTT", "setting": "[9]", "result": "effectively reverses the observed effects"}, {"measurement": "neutralization of aptamer effects in rat whole blood", "setting": "rat whole blood; reverse complement strand", "result": "neutralized the observed effects"}]}, {"substance": "reverse complement of AYA1809004: aptamer antidote TTCAACGTCAACACCCACCCCCCCAACCGTACCTTGACGA (DNA, backbone and methylation of C not given here)", "values": [{"measurement": "reversal of modified aptamers' effects on Factor II activity, PT and APTT", "setting": "[9]", "result": "effectively restored"}]}]}
